Measured values as given in patent US6737383B1, “Herbicidal oxadiazolidines” (priority 1999, dated 2004).

How the values were obtained:
[1] = test system: sugar beet; experiment: Test B pre/postemergence sugar beet; format: in vivo, Beta vulgaris; settings: for Plant response rating, Sugarbeets: Rate 250 g/ha
Outline: (§1)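 Herbicidal effect was estimated by eye on a ten-point control scale after plants spent twelve to sixteen days in a greenhouse following soil or foliar treatment. Foliar sprays targeted plants at one to four leaves; all doses were formulated in a non-phytotoxic solvent with surfactant.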

[2] = test system: velvetleaf; experiment: Test B pre/postemergence velvetleaf; format: in vivo, Abutilon theophrasti; settings: for Plant response rating, Velvetleaf: Rate 250 g/ha
Outline: as §1

[3] = test system: smallflower flatsedge; experiment: Test B flood test smallflower flatsedge; format: in vivo, Cyperus difformis
Outline: (§2)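 Plants were grown to the 2-leaf stage before treatment with test chemical, then held in a greenhouse for twelve to sixteen days. Injury was visually rated against untreated controls on a 0–10 scale, where 0 is no effect and 10 is complete control.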

[4] = test system: bedstraw; experiment: Test B pre/postemergence bedstraw; format: in vivo, Galium aparine
Outline: as §1

[5] = test system: purple nutsedge; experiment: Test B pre/postemergence purple nutsedge; format: in vivo, Cyperus rotundus
Outline: as §1

[6] = test system: blackgrass; experiment: Test B pre/postemergence blackgrass; format: in vivo, Alopecurus myosuroides
Outline: as §1

[7] = test system: pigweed; experiment: Test B pre/postemergence pigweed; format: in vivo, Amaranthus retroflexus
Outline: as §1

[8] = test system: wild oat; experiment: Test B pre/postemergence wild oat; format: in vivo, Avena fatua; settings: for Plant response rating, Wild oats: Rate 250 g/ha
Outline: as §1

[9] = test system: bamyardgrass; experiment: Test B flood test barnyardgrass; format: in vivo, Echinochloa crus-galli
Outline: as §2

[10] = test system: corn; experiment: Test B pre/postemergence corn; format: in vivo, Zea mays
Outline: as §1

[11] = test system: morningglory; experiment: Test B pre/postemergence morningglory; format: in vivo, Ipomoea hederacea
Outline: as §1

[12] = test system: cocklebur; experiment: Test B pre/postemergence cocklebur; format: in vivo, Xanthium strumarium
Outline: as §1

[13] = test system: rape; experiment: Test B pre/postemergence rape; format: in vivo, Brassica napus
Outline: as §1

[14] = test system: soybean; experiment: Test B pre/postemergence soybean; format: in vivo, Glycine max
Outline: as §1

[15] = test system: surinam grass; experiment: Test B pre/postemergence surinam grass; format: in vivo, Brachiaria decumbens
Outline: as §1

[16] = test system: rice; experiment: Test B flood test rice; format: in vivo, Oryza sativa
Outline: as §2

[17] = Postemergence, Rate 125 g/ha, scale of 0 to 10 where 0 is no effect and 10 is complete control
[18] = Preemergence, Rate 62 g/ha, scale 0 to 10 (0 no effect, 10 complete control)
[19] = Preemergence, Rate 125 g/ha, 0 is no effect, 10 is complete control
[20] = Preemergence, scale of 0 to 10 where 0 is no effect and 10 is complete control
[21] = Preemergence, Rate 500 g/ha, scale 0 to 10 (0 no effect, 10 complete control)
[22] = Rate 62 g/ha, Postemergence, scale of 0 to 10 where 0 is no effect and 10 is complete control
[23] = Postemergence, scale 0 to 10, 0 is no effect, 10 is complete control
[24] = Rate 500 g/ha, Postemergence, scale 0 to 10, 0 no effect, 10 complete control
[25] = Postemergence (flood test species), Rate 125 g/ha, scale of 0 to 10 where 0 is no effect and 10 is complete control
[26] = Rate 62 g/ha, Postemergence section, flood test species, scale of 0 to 10 where 0 is no effect and 10 is complete control
[27] = Rate 250 g/ha, Postemergence (flood test), scale 0 to 10, 0 is no effect, 10 is complete control
[28] = Rate 250 g/ha, headed Pre-emergence (flood test species), scale 0 to 10 (0 no effect, 10 complete control)
[29] = Rate 500 g/ha, headed Pre-emergence (flood test species), scale 0 to 10 (0 no effect, 10 complete control)
[30] = Rate 500 g/ha, listed under Postemergence (flood test species), scale 0 to 10, 0 no effect, 10 complete control
[31] = Rate 2000 g/ha, Pre-emergence (as headed), scale 0 to 10
[32] = Postemergence, Rate 62 g/ha, scale 0 to 10, 0 is no effect, 10 is complete control
[33] = Postemergence, Rate 250 g/ha, scale 0 to 10, 0 no effect, 10 complete control
[34] = Preemergence, Rate 125 g/ha, scale 0 to 10 (0 no effect, 10 complete control)
[35] = Preemergence, Rate 250 g/ha, scale of 0 to 10 where 0 is no effect and 10 is complete control
[36] = Rate 125 g/ha, Postemergence, scale 0 to 10, 0 no effect, 10 complete control
[37] = Rate 250 g/ha, Postemergence, scale 0 to 10, 0 is no effect, 10 is complete control
[38] = Rate 1000 g/ha, Pre-emergence (as headed), scale 0 to 10

CCn1c(=O)on(C(=O)N(c2ccc(Cl)cc2)C(C)C)c1=O [Compound 108]
Sugarbeets plant response rating [1, 17]: 0 | Sugarbeets plant response rating [1, 18]: 3 | Sugarbeets plant response rating (0 to 10 scale) [1, 19]: 3 | Plant response rating, Sugarbeets [1, 20]: 4 | Sugarbeets plant response rating [1, 21]: 8 | Sugarbeets plant response rating [1, 22]: 0 | Plant response rating, Sugarbeets [1, 23]: 2 | Sugarbeets plant response rating [1, 24]: 2 | Velvetleaf plant response rating [2, 17]: 4 | Velvetleaf plant response rating [2, 18]: 3 | Velvetleaf plant response rating (0 to 10 scale) [2, 19]: 4 | Plant response rating, Velvetleaf [2, 20]: 4 | Velvetleaf plant response rating [2, 21]: 5 | Velvetleaf plant response rating [2, 22]: 2 | Plant response rating, Velvetleaf [2, 23]: 4 | Velvetleaf plant response rating [2, 24]: 5 | S. Flatsedge plant response rating [3, 25]: 0 | S. Flatsedge plant response rating ([3]; Pre-emergence, Rate 1000 g/ha, scale 0 to 10 (0 no effect, 10 complete control)): 0 | S. Flatsedge plant response rating [3, 26]: 0 | Plant response rating, S. Flatsedge [3, 27]: 0 | S. Flatsedge plant response rating [3, 28]: 0 | Plant response rating, S. Flatsedge [3, 29]: 0 | S. Flatsedge plant response rating [3, 30]: 0 | S. Flatsedge plant response rating [3, 31]: 0 | Bedstraw plant response rating [4, 32]: 0 | Bedstraw plant response rating [4, 33]: 2 | Bedstraw plant response rating [4, 18]: 0 | Plant response rating, Bedstraw [4, 34]: 5 | Plant response rating, Bedstraw [4, 35]: 8 | Bedstraw plant response rating [4, 21]: 8 | Bedstraw plant response rating [4, 36]: 0 | Bedstraw plant response rating [4, 24]: 6 | Nutsedge plant response rating [5, 17]: 3 | Nutsedge plant response rating [5, 33]: 4 | Nutsedge plant response rating [5, 18]: 0 | Plant response rating, Nutsedge [5, 34]: 0 | Plant response rating, Nutsedge [5, 35]: 0 | Nutsedge plant response rating [5, 21]: 0 | Nutsedge plant response rating [5, 22]: 0 | Nutsedge plant response rating [5, 24]: 4 | Blackgrass plant response rating [6, 17]: 7 | Blackgrass plant response rating [6, 33]: 7 | Blackgrass plant response rating [6, 18]: 5 | Plant response rating, Blackgrass [6, 34]: 7 | Plant response rating, Blackgrass [6, 35]: 9 | Blackgrass plant response rating [6, 21]: 10 | Blackgrass plant response rating [6, 22]: 4 | Blackgrass plant response rating [6, 24]: 8 | Redroot pigweed plant response rating [7, 17]: 0 | Plant response rating, Redroot pigweed [7, 34]: 3 | Plant response rating, Redroot pigweed [7, 35]: 10 | Redroot pigweed plant response rating [7, 21]: 10 | Redroot pigweed plant response rating [7, 22]: 0 | Plant response rating, Redroot pigweed [7, 37]: 0 | Redroot pigweed plant response rating [7, 24]: 3 | Wild oats plant response rating [8, 17]: 0 | Wild oats plant response rating [8, 18]: 9 | Wild oats plant response rating (0 to 10 scale) [8, 19]: 9 | Plant response rating, Wild oats [8, 20]: 9 | Wild oats plant response rating [8, 21]: 9 | Wild oats plant response rating [8, 22]: 0 | Plant response rating, Wild oats [8, 23]: 3 | Wild oats plant response rating [8, 24]: 3 | Barnyardgrass plant response rating [9, 32]: 0 | Barnyardgrass plant response rating ([9]; Rate 125 g/ha, Postemergence section (flood test species), scale 0 to 10, 0 no effect, 10 complete control): 0 | Barnyardgrass plant response rating [9, 28]: 0 | Plant response rating, Barnyardgrass [9, 29]: 0 | Barnyardgrass plant response rating [9, 30]: 0 | Barnyardgrass plant response rating [9, 38]: 0 | Barnyardgrass plant response rating ([9]; Rate 2000 g/ha, Pre-emergence (as headed), scale 0 to 10, 0 no effect, 10 complete control): 0 | Barnyardgrass plant response rating ([9]; flood test, listed under Postemergence, Rate 250 g/ha, scale 0 to 10, 0 no effect, 10 complete control): 0 | Corn plant response rating [10, 17]: 0 | Corn plant response rating [10, 33]: 0 | Corn plant response rating [10, 18]: 0 | Plant response rating, Corn [10, 34]: 0 | Plant response rating, Corn [10, 35]: 6 | Corn plant response rating [10, 21]: 9 | Corn plant response rating [10, 22]: 0 | Corn plant response rating [10, 24]: 0 | Morningglory plant response rating [11, 17]: 3 | Morningglory plant response rating [11, 33]: 3 | Morningglory plant response rating [11, 18]: 0 | Plant response rating, Morningglory [11, 34]: 0 | Plant response rating, Morningglory [11, 35]: 0 | Morningglory plant response rating [11, 21]: 0 | Morningglory plant response rating [11, 22]: 0 | Morningglory plant response rating [11, 24]: 3 | Cocklebur plant response rating [12, 17]: 0 | Cocklebur plant response rating [12, 33]: 0 | Plant response rating, Cocklebur [12, 34]: 0 | Plant response rating, Cocklebur [12, 35]: 0 | Cocklebur plant response rating [12, 21]: 0 | Cocklebur plant response rating [12, 22]: 0 | Cocklebur plant response rating [12, 24]: 2 | Rape plant response rating [13, 17]: 0 | Rape plant response rating [13, 33]: 0 | Rape plant response rating [13, 18]: 0 | Plant response rating, Rape [13, 34]: 0 | Plant response rating, Rape [13, 35]: 7 | Rape plant response rating [13, 21]: 9 | Rape plant response rating [13, 22]: 0 | Rape plant response rating [13, 24]: 2 | Soybean plant response rating [14, 17]: 3 | Soybean plant response rating [14, 18]: 0 | Plant response rating, Soybean [14, 34]: 0 | Plant response rating, Soybean [14, 35]: 0 | Soybean plant response rating [14, 21]: 2 | Soybean plant response rating [14, 22]: 1 | Plant response rating, Soybean [14, 37]: 5 | Soybean plant response rating [14, 24]: 5 | B. signalgrass plant response rating [15, 32]: 0 | B. signalgrass plant response rating [15, 33]: 3 | B. signalgrass plant response rating [15, 18]: 4 | Plant response rating, B. signalgrass [15, 34]: 6 | Plant response rating, B. signalgrass [15, 35]: 7 | B. signalgrass plant response rating [15, 21]: 9 | B. signalgrass plant response rating [15, 36]: 3 | B. signalgrass plant response rating ([15]; Rate 500 g/ha, Postemergence, scale of 0 to 10 where 0 is no effect and 10 is complete control): 6 | Rice plant response rating [16, 25]: 0 | Rice plant response rating [16, 26]: 0 | Plant response rating, Rice [16, 27]: 0 | Rice plant response rating [16, 28]: 0 | Plant response rating, Rice [16, 29]: 0 | Rice plant response rating [16, 30]: 0 | Rice plant response rating [16, 38]: 0 | Rice plant response rating [16, 31]: 0
